Tests used:
PKCα = molecular target: T1, PKCα (Homo sapiens, UniProt P17252); assay: Protein kinase activity assay, PKCα; assay type: biochemical; conditions: Table I b; percentage of catalytic activity compared to DMSO; lipid activator mix, histone H1
T1 construct: purchased Millipore
Description: (§1) The protein kinase activity assays were performed essentially as previously described (Engel, M. et al. Embo J 25, 5469-80 (2006)). The assays were done in a 96-well format and 4 μl aliquots spotted on P81 phospho-cellulose papers (Whatman) using epMotion 5070 (Eppendorf), washed in 0.01% phosphoric acid, dried, and then exposed and analyzed using PhosphoImager technology (FLA-9000 Starion, Fujifilm). Atypical PKC (aPKC) activity assays were performed in a total volume of 20 μl containing 50 mM Tris-HCl pH 7.5, 0.05 mg/ml BSA, 0.1% (v/v) 2-mercaptoethanol, 10 mM MgCl2, 100 μM [γ^32P]ATP (5-50 cpm/pmol), 0.003% Brij, 30-50 ng of aPKC, and MBP (10 μM) or PSRtide (100 μM) as the substrate. After 15 min pre-incubation, the kinase reaction was started by addition of 6 μl of an ATP-Mg mix. When required, lipid activator (LA) phosphatidylserine (100 ng) or PKC lipid activator mix (1×) was included in the pre-incubation. Low basal activity and consistent activation of 1-592 PKCζ and 498 PKCζ by LA was obtained when the pre-incubation time was started by addition of the whole mix on the enzyme.
(§2) The substrates were T308tide (200 μM) for PDK1, Kemptide (100 μM) for PKA, and Crosstide (100 μM) for SGK, PKB, S6K, and PRK2. The activity assays for PKCα, β, θ, and δ were performed in the presence of PKC lipid activator mix (1×) using 3 μM of histone H1 as substrate. […]

S6K1-T2-[Thr412Glu] = molecular target: T2, S6K1-T2-[Thr412Glu] (Homo sapiens, UniProt P23443, T412E); assay: Protein kinase activity assay, S6K1; assay type: biochemical; conditions: Table I a; percentage of catalytic activity compared to DMSO; Crosstide substrate
T2 construct: His; made in house; host or cells: Sf9 insect cells (baculovirus)
Description: For the expression and purification of protein kinases fused to GST, pEBG-2T derived plasmids were transfected into 8×14.5 cm dishes containing HEK293 cells using the PEI method ([…] and […]/14.5 cm dish). The cells were lysed after 48 h in a buffer containing 50 mM Tris-HCl pH 7.5, 1 mM EGTA, 1 mM EDTA, 1% (w/v) Triton X-100, 1 mM sodium orthovanadate, […], 5 mM sodium pyrophosphate, 0.27 M sucrose, 0.1% β-mercaptoethanol, and 1 tablet of protease inhibitor cocktail per 50 ml of buffer. Lysates were frozen in liquid nitrogen and kept at −80° C. until required. Purification involved incubation of the cleared lysate with glutathione sepharose, followed by 2 washes with 0.5 M NaCl in lysis buffer, 8 washes with a buffer containing 50 mM Tris-HCl, 0.1 mM EGTA and 0.1% β-mercaptoethanol (buffer A), and a last wash with buffer A supplemented with 0.26 M sucrose. […]
The protein kinase activity assays were performed essentially as previously described (Engel, M. et al. Embo J 25, 5469-80 (2006)). The assays were done in a 96-well format and 4 μl aliquots spotted on P81 phospho-cellulose papers (Whatman) using epMotion 5070 (Eppendorf), washed in 0.01% phosphoric acid, dried, and then exposed and analyzed using PhosphoImager technology (FLA-9000 Starion, Fujifilm). […]

PKCδ = molecular target: T3, PKCδ (Homo sapiens, UniProt Q05655); assay: Protein kinase activity assay, PKCδ; assay type: biochemical; conditions: Table I b; percentage of catalytic activity compared to DMSO; lipid activator mix, histone H1
T3 construct: purchased ProQinase
Description: as §1, §2

PKCβ = molecular target: T4, PKCβ (Homo sapiens, UniProt P05771); assay: Protein kinase activity assay, PKCβ; assay type: biochemical; conditions: Table I b; percentage of catalytic activity compared to DMSO; lipid activator mix, histone H1
T4 construct: purchased ProQinase
Description: as §1, §2

PKA = assay: Protein kinase activity assay, PKA; assay type: biochemical; conditions: Table I a; percentage of catalytic activity compared to DMSO; Kemptide substrate
Description: as §1, §2

PKCθ = molecular target: T5, PKCθ (Homo sapiens, UniProt Q04759); assay: Protein kinase activity assay, PKCθ; assay type: biochemical; conditions: Table I b; percentage of catalytic activity compared to DMSO; lipid activator mix, histone H1
T5 construct: purchased ProQinase
Description: as §1, §2

[1] = test system: PKCζ-dependent NFκB activation in U937 cells; assay: PKCζ-dependent NFκB signaling in U937 cells (luciferase reporter, TNFα stimulation); assay type: cell-based; conditions: 3 h pre-incubation, TNFα 50 ng/ml 90 min, read-out: IC50, inhibition of PKCζ-dependent NFκB activation
Description: In U937 lymphoma cells, tumor necrosis factor alpha (TNFα) dependent activation of NFκB is dependent on PKCζ activity (Folgueira, L. et al. J Virol 70, 223-31 (1996); Muller, G. et al. Embo J 14, 1961-9 (1995)). U937cells were transiently transfected with a plasmid encoding for luciferase under the control of NFκB response elements (pGL4.32 [luc2P/NF-κB-RE/Hygro], Promega). After serum starvation overnight, the cells were incubated in 96-well plates with the compounds or DMSO (0.25%) for 3 h and stimulated with TNFα (50 ng/ml, PeproTech) for 90 min. Bright-Glo Luciferase Assay reagent (Promega) was added and the luciferase activity measured using the multilabel reader station EnVision (Perkin Elmer).
U937 lymphoma cells were transiently transfected with a plasmid coding for luciferase under the control of the NFκB promoter. Upon stimulation of the cells with TNFα, an increase in luciferase activity is detected. In U937 cells, the NFκB signaling pathway is dependent on PKCζ activity (Muller, G. et al. Embo J 14, 1961-9 (1995)).

T2 sequence (P23443 1-421 T412E limits assumed): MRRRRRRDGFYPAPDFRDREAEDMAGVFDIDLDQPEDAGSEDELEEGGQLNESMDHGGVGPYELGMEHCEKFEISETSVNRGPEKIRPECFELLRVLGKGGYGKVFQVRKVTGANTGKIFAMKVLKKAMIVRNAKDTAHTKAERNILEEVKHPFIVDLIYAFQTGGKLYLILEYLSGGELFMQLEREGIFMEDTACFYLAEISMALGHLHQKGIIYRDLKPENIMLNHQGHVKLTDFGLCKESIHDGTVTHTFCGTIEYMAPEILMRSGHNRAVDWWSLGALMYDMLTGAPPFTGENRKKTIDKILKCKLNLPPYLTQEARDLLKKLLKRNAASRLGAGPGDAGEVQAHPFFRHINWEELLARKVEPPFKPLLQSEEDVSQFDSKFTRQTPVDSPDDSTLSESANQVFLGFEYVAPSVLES
T5 sequence (Q04759 whole entry): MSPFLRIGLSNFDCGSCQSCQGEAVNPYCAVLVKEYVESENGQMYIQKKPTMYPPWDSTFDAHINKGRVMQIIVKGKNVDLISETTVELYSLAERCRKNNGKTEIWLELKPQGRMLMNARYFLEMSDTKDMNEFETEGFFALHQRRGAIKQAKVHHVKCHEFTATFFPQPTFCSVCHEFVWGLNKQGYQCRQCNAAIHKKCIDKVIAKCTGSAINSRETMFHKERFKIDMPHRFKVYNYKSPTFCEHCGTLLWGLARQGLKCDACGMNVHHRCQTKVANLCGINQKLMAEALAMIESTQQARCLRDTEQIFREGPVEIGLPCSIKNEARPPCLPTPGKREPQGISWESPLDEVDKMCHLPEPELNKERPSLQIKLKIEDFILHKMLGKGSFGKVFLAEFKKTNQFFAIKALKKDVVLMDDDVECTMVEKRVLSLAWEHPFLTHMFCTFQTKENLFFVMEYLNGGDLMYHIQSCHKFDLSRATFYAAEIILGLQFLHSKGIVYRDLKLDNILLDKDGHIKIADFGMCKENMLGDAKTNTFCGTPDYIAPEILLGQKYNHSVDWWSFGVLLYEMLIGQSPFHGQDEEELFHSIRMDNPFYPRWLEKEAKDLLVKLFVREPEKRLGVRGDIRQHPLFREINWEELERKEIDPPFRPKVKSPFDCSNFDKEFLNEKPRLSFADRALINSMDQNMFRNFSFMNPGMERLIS
T4 sequence (P05771 whole entry, species assumed): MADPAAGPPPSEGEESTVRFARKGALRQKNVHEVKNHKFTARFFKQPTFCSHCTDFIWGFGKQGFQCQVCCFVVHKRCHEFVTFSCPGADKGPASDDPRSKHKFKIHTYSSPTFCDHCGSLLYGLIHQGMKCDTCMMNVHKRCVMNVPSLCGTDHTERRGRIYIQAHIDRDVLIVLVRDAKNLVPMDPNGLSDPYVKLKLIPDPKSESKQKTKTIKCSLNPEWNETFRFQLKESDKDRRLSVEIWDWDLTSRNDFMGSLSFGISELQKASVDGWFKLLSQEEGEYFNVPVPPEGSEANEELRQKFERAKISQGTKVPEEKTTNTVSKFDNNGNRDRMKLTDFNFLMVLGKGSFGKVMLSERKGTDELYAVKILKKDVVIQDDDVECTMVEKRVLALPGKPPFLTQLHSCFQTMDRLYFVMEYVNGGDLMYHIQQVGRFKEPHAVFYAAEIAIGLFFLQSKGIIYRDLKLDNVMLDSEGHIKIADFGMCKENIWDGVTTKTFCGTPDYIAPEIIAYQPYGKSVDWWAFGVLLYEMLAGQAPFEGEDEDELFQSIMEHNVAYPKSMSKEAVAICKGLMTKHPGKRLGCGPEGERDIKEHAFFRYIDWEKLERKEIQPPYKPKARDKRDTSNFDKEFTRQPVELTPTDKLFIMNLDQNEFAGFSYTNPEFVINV
T3 sequence (Q05655 whole entry): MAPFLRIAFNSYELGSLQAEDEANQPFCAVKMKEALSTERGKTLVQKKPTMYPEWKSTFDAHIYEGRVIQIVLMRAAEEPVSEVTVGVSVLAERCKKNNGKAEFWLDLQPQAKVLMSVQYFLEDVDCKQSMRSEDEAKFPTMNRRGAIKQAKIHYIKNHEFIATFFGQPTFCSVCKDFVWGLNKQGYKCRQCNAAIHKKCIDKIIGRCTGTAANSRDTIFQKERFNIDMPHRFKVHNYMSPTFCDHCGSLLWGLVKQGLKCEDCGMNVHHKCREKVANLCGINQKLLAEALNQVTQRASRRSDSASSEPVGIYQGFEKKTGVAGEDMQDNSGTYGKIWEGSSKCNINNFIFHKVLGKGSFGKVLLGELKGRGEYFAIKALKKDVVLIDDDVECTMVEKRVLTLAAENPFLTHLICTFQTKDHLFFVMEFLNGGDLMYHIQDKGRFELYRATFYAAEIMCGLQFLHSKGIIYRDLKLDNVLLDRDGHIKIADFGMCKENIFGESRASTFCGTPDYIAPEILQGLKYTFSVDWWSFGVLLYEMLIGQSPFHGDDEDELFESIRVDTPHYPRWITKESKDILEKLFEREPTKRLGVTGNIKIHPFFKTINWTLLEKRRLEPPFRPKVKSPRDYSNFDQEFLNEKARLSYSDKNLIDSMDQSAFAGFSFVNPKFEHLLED

SMILES	Activity (%) Classical PKCs PKCα (PKCα)	Activity (%) S6K1 (S6K1-T2-[Thr412Glu])	Activity (%) Novel PKCs PKCδ (PKCδ)	Activity (%) Classical PKCs PKCβ (PKCβ)	Activity (%) PKA (PKA)	Activity (%) Novel PKCs PKCθ (PKCθ)	IC50 [1]
Cl.O=C(O)CC(Cc1nc2cc(-c3ccccc3)ccc2[nH]1)c1ccc(Cl)cc1 (centres unmarked) [PS168]	154%	41%	148%	148%	70%	130%	50 µM
Cl.O=C(O)CC(Cc1nc2c(Cl)cc(Cl)cc2[nH]1)c1ccc(Cl)cc1 (centres unmarked) [PS171]	145%	47%	170%	138%	91%	118%	50 µM

Reference: patent publication US20140017701A1, “CHIMERIC PDK1 KINASES” (priority 2011, published 2014)
